The assay deals with T1, AHR (Homo sapiens, UniProt P35869).
T1 construct: U87 glioblastoma cells (ATCC) endogenously expressing AHR; host or cells: U87 glioblastoma cells, stably transfected with DRE-firefly luciferase and renilla reporter constructs
T1 sequence (P35869 11-848): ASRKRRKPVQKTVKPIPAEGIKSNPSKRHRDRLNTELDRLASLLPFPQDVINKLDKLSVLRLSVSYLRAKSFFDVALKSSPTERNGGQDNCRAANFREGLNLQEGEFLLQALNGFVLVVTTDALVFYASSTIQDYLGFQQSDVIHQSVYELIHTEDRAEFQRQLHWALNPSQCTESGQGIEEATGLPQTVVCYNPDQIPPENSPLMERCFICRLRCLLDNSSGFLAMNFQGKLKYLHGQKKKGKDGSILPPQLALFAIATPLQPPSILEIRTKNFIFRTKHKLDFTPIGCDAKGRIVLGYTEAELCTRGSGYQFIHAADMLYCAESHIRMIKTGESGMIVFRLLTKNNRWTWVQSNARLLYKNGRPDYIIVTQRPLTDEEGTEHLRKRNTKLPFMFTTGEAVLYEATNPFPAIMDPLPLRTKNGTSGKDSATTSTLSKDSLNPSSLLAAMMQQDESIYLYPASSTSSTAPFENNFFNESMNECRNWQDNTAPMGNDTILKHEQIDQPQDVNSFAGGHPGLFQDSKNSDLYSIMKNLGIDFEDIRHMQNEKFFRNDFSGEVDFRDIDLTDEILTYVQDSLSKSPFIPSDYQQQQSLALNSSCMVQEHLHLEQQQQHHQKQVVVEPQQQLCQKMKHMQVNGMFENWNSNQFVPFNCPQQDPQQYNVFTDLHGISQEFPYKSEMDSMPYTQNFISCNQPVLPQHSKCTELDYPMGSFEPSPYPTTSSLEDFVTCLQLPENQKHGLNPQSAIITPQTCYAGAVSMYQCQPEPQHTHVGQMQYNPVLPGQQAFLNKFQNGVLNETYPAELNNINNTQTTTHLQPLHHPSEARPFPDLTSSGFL
Briefly: In vitro assay 1: AHR-luc transactivation assay, antagonism in human cell line (U87 glioblastoma cells prestimulated with kynurenic acid). Format: cell-based. How it is done:
Transactivation Assay in Human Cell Line (In Vitro Assays 1 and 2)
Transactivation assays were carried out in U87 glioblastoma cells (ATCC) endogenously expressing AHR. In addition the cells were stably transfected with an AHR inducible firefly luciferase reporter gene construct that carried AHR-binding sites (DRE) in its promoter and a renilla reporter gene construct with constitutively active promoter. Kynurenic acid is an endogenous AHR activating ligand and was used to prestimulate test cells prior to testing the antagonistic properties of compounds.
In Vitro Assay 1: Antagonism in Human Cell Line
Cells in medium (tryptophan free RPMI, 1% FCS, 2 mM Glutamine) supplemented with 150 μM kynurenic acid were grown for 20 hours in absence (negative control) or presence of increasing concentrations of test compounds (typical dilutions: 72 pmol/L, 0.25 nmol/L, 0.89 nmol/L; 3.1 nmol/L, 11 nmol/L, 38 nmol/L, 130 nmol/L, 470 nmol/L, 1.6 μmol/L, 5.7 μmol/L and 20 μmol/L in duplicates). As positive inhibition control cells supplemented with 150 μM kynurenic acid were incubated in presence of 5 μM Staurosporin. Normalization was done by positive and negative controls.
Firefly luciferase and Renilla activity was determined by the DualGlo Luciferase Assay System (Promega, #2920). Renilla activity was used to assess toxic effects of compounds.
One may read the IC50 as the concentration needed to halve the response being measured. On to `O=C(NCC1(O)CCCCC1)c1cc(-c2ccc(C(F)F)nc2)nn(-c2cccc(F)c2)c1=O` [Example 31, 6-[6-(Difluoromethyl)pyridin-3-yl]-2-(3-fluorophenyl)-N-[(1-hydroxycyclohexyl)methyl]-3-oxo-2,3-dihydropyridazine-4-carboxamide], for which the IC50 turned out to be 31.8 nM.

Take `N#C[C@@H](CO)NC(=O)c1cc(-c2ccc(C(F)(F)F)nc2)nn(-c2cccc(F)c2)c1=O` [Example 39, N-[(1S)-1-Cyano-2-hydroxyethyl]-2-(3-fluorophenyl)-3-oxo-6-[6-(trifluoromethyl)pyridin-3-yl]-2,3-dihydropyridazine-4-carboxamide]: the IC50 came out at 22.8 nM. Then `C[C@@H](CO)NC(=O)c1cc(-c2ccc(Cl)cn2)nn(-c2cccc(F)c2)c1=O` [Example 24, 6-(5-Chloropyridin-2-yl)-2-(3-fluorophenyl)-N-[(2S)-1-hydroxypropan-2-yl]-3-oxo-2,3-dihydropyridazine-4-carboxamide], with 352 nM; and `C[C@H](O)[C@H](C)NC(=O)c1cc(-c2cnc(C(F)(F)F)nc2)nn(-c2cccc(F)c2)c1=O` [Example 16, 2-(3-Fluorophenyl)-N-[(2S,3S)-3-hydroxybutan-2-yl]-3-oxo-6-[2-(trifluoromethyl)pyrimidin-5-yl]-2,3-dihydropyridazine-4-carboxamide], with 169 nM.

Compound `O=C(N[C@H]1COCC[C@H]1O)c1cc(-c2ccc(C(F)F)nc2)nn(-c2cccc(F)c2)c1=O` [Example 35, 1,5-Anhydro-2,4-dideoxy-2-[({6-[6-(difluoromethyl)pyridin-3-yl]-2-(3-fluorophenyl)-3-oxo-2,3-dihydropyridazin-4-yl}carbonyl)amino]-D-erythro-pentitol] displayed an IC50 of 174 nM. The IC50 values of the last two compounds are within 1.5-fold of each other. The value for `O=C(NC[C@H](O)C(F)F)c1cc(-c2cnc(C(F)(F)F)nc2)nn(-c2cccc(F)c2)c1=O` [Example 15, N-[(2S)-3,3-Difluoro-2-hydroxypropyl]-2-(3-fluorophenyl)-3-oxo-6-[2-(trifluoromethyl)pyrimidin-5-yl]-2,3-dihydropyridazine-4-carboxamide] was 307 nM; that for `CC(C)(O)[C@@H](NC(=O)c1cc(-c2ccc(C(F)F)nc2)nn(-c2cccc(F)c2)c1=O)C1CC1` [Example 27, N-[(1S)-1-Cyclopropyl-2-hydroxy-2-methylpropyl]-6-[6-(difluoromethyl)pyridin-3-yl]-2-(3-fluorophenyl)-3-oxo-2,3-dihydropyridazine-4-carboxamide] was 4.08 nM.

As to `Cc1ccc(-c2cc(C(=O)N[C@@H](C)CO)c(=O)n(-c3cccc(F)c3)n2)nc1` [Example 12, 2-(3-Fluorophenyl)-N-[(2S)-1-hydroxypropan-2-yl]-6-(5-methylpyridin-2-yl)-3-oxo-2,3-dihydropyridazine-4-carboxamide], the IC50 is 1080 nM. Then `Cc1ccc(-c2cc(C(=O)N[C@@H](C)CO)c(=O)n(-c3cccc(F)c3)n2)cn1` [Example 23, 2-(3-Fluorophenyl)-N-[(2S)-1-hydroxypropan-2-yl]-6-(6-methylpyridin-3-yl)-3-oxo-2,3-dihydropyridazine-4-carboxamide], with 265 nM; and `O=C(N[C@H](CO)C1CC1)c1cc(-c2ccc(C(F)F)nc2)nn(-c2cccc(F)c2)c1=O` [Example 29, N-[(1S)-1-Cyclopropyl-2-hydroxyethyl]-6-[6-(difluoromethyl)pyridin-3-yl]-2-(3-fluorophenyl)-3-oxo-2,3-dihydropyridazine-4-carboxamide], with 15.1 nM; and `CC(C)(O)CNC(=O)c1cc(-c2cnc(C(F)(F)F)nc2)nn(-c2cccc(F)c2)c1=O` [Example 17, 2-(3-Fluorophenyl)-N-(2-hydroxy-2-methylpropyl)-3-oxo-6-[2-(trifluoromethyl)pyrimidin-5-yl]-2,3-dihydropyridazine-4-carboxamide], with 2030 nM.

On to `C[C@@H](CO)NC(=O)c1cc(-c2ccc(C(F)(F)F)cn2)nn(-c2cccc(F)c2)c1=O` [Example 25, 2-(3-Fluorophenyl)-N-[(2S)-1-hydroxypropan-2-yl]-3-oxo-6-[5-(trifluoromethyl)pyridin-2-yl]-2,3-dihydropyridazine-4-carboxamide], for which the IC50 was found to be 84.8 nM. Then `C[C@@H](CO)NC(=O)c1cc(-c2ccc(C(F)(F)F)nc2)nn(-c2ccc(F)c(F)c2)c1=O` [Example 3, 2-(3,4-Difluorophenyl)-N-[(2S)-1-hydroxypropan-2-yl]-3-oxo-6-[6-(trifluoromethyl)pyridin-3-yl]-2,3-dihydropyridazine-4-carboxamide], with 623 nM. In turn, `O=C(N[C@H]1COCC[C@H]1O)c1cc(-c2ccc(C(F)(F)F)nc2)nn(-c2cccc(F)c2)c1=O` [Example 40, 1,5-anhydro-2,4-dideoxy-2-[({2-(3-fluorophenyl)-3-oxo-6-[6-(trifluoromethyl)pyridin-3-yl]-2,3-dihydropyridazin-4-yl}carbonyl)amino]-D-erythro-pentitol] had an IC50 of 32.8 nM. This IC50 lies about 19-fold lower than the previous one.

In the case of `C[C@@H](CO)NC(=O)c1cc(-c2ccc(C(F)(F)F)cn2)nn(-c2cc(F)cc(F)c2)c1=O` [Example 41, 2-(3,5-Difluorophenyl)-N-[(2S)-1-hydroxypropan-2-yl]-3-oxo-6-[5-(trifluoromethyl)pyridin-2-yl]-2,3-dihydropyridazine-4-carboxamide], the IC50 is 96.5 nM. Then `COc1ccc(-c2cc(C(=O)N[C@H](C)C(C)(C)O)c(=O)n(-c3cccc(F)c3)n2)cn1` [Example 20, 2-(3-Fluorophenyl)-N-[(2R)-3-hydroxy-3-methylbutan-2-yl]-6-(6-methoxypyridin-3-yl)-3-oxo-2,3-dihydropyridazine-4-carboxamide], with 509 nM.

Compound `C[C@@H](CO)NC(=O)c1cc(-c2ccc(C(F)(F)F)cn2)nn(-c2ccc(F)c(F)c2)c1=O` [Example 43, 2-(3,4-Difluorophenyl)-N-[(2S)-1-hydroxypropan-2-yl]-3-oxo-6-[5-(trifluoromethyl)pyridin-2-yl]-2,3-dihydropyridazine-4-carboxamide] displayed an IC50 of 902 nM. This IC50 is about 1.8-fold higher than that of the compound before. `O=C(NC(CO)C1CCOC1)c1cc(-c2ccc(C(F)F)nc2)nn(-c2cccc(F)c2)c1=O` (centres unmarked) [Example 36, 6-[6-(Difluoromethyl)pyridin-3-yl]-2-(3-fluorophenyl)-N-[2-hydroxy-1-(tetrahydrofuran-3-yl)ethyl]-3-oxo-2,3-dihydropyridazine-4-carboxamide] showed an IC50 of 196 nM.

`O=C(N[C@H]1COC[C@H]1O)c1cc(-c2ccc(C(F)F)nc2)nn(-c2cccc(F)c2)c1=O` [Example 33, 6-[6-(Difluoromethyl)pyridin-3-yl]-2-(3-fluorophenyl)-N-[(3S,4S)-4-hydroxyoxolan-3-yl]-3-oxo-2,3-dihydropyridazine-4-carboxamide] registered an IC50 of 75.1 nM. The value for `C[C@@H](CO)NC(=O)c1cc(-c2ccc(C(F)(F)F)cn2)nn(-c2ccccc2)c1=O` [Example 42, N-[(2S)-1-Hydroxypropan-2-yl]-3-oxo-2-phenyl-6-[5-(trifluoromethyl)pyridin-2-yl]-2,3-dihydropyridazine-4-carboxamide] was 386 nM. The value for `CC(C)(O)CNC(=O)c1cc(-c2ccc(C(F)F)nc2)nn(-c2cccc(F)c2)c1=O` [Example 34, 6-[6-(Difluoromethyl)pyridin-3-yl]-2-(3-fluorophenyl)-N-(2-hydroxy-2-methylpropyl)-3-oxo-2,3-dihydropyridazine-4-carboxamide] was 156 nM; that for `C[C@H](NC(=O)c1cc(-c2cnc(C(F)(F)F)nc2)nn(-c2cccc(F)c2)c1=O)C(C)(C)O` [Example 14, 2-(3-Fluorophenyl)-N-[(2S)-3-hydroxy-3-methylbutan-2-yl]-3-oxo-6-[2-(trifluoromethyl)pyrimidin-5-yl]-2,3-dihydropyridazine-4-carboxamide] was 217 nM. The value for `O=C(N[C@@H]1CSC[C@@H]1O)c1cc(-c2ccc(C(F)(F)F)nc2)nn(-c2cccc(F)c2)c1=O` [Example 26, 2-(3-Fluorophenyl)-N-[(3S,4R)-4-hydroxytetrahydrothiophen-3-yl]-3-oxo-6-[6-(trifluoromethyl)pyridin-3-yl]-2,3-dihydropyridazine-4-carboxamide] was 5740 nM.

These data come from patent publication US11591311B2, “3-oxo-6-heteroaryl-2-phenyl-2,3-dihydropyridazine-4-carboxamides” (priority 2017, dated 2023).
